According to PubChem BioAssay AID1963597 (National Center for Advancing Translational Sciences (NCATS), 2024):

What follows are molecules tested on human liver microsomes, metabolic stability half-life (assay: NCATS Human Liver Microsomal (HLM) Stability Profiling). Conditions: higher = more stable; screened at 1 µM (by protocol).
Method in brief: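 Substrate depletion (in vitro t1/2): 1 µM compound with 0.5 mg/mL microsomes and NADPH regenerating system, phosphate buffer pH 7.4, 37 °C. Sampled at 0, 5, 10, 15, 30, 60 min into cold acetonitrile with albendazole internal standard for MS quantification.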

SMILES	half-life
Cc1ccc(S(=O)(=O)NC(=O)NC2CCCCC2)cc1	> 120 min
O=C(OCC(O)CO)c1ccccc1Nc1ccnc2c(C(F)(F)F)cccc12 (stereo unspecified)	34.6 min
Cc1nc2c(C(F)(F)F)cccc2nc1-c1ccc(-c2cccc(S(C)(=O)=O)c2)cc1	> 120 min
CCOc1ccc(CNC(=O)Cn2c(=O)c3cccn3c3ccc(F)cc32)cc1OC	80.7 min
Cc1cccc(NC(c2ccccc2F)c2ccc3ccc(C)nc3c2O)n1 (stereo unspecified)	14.1 min
COc1ccc2nc([C@H]3CCN(Cc4cccc(C#N)c4)C3)[nH]c2c1	12.3 min
CN(C)S(=O)(=O)c1ccc(S(=O)(=O)N(Cc2ccccc2Cl)C[C@@H]2CCCO2)cc1	1.28 min
O=C1c2ccccc2C(=O)c2c(O)c(O)cc(O)c21	59.8 min
Cc1ccc(C(C)(O)c2nc3ccccc3s2)c(C)c1 (stereo unspecified)	4.22 min
COCCOc1nc(N)c2[nH]c(=O)n(Cc3ccc(C(=O)O)cc3)c2n1	> 120 min
O=C(CCC1CCN(Cc2ccccc2)CC1)c1ccc2c(c1)NCCCC2	5.22 min
NC(=Nc1ccccc1)Nc1ccccc1	> 120 min
Cc1cc(C)cc(NC(=O)Cc2ccc(OC(C)(C)C(=O)O)cc2)c1	> 120 min
Cc1ccc(Nc2nc(C)c(NC(=O)c3ccc(C)cc3)c(Nc3ccc(C)cc3)n2)cc1	20.5 min
CCOCCn1c(C2CCN(CCc3ccc(C(C)(C)C(=O)O)cc3)CC2)nc2ccccc21	> 120 min
CCOC(=O)c1cc(C#N)c(N2CCC(C(=O)NS(=O)(=O)Cc3ccccc3)CC2)nc1C	43.7 min
CN(C)Cc1c(C(=O)NCCOc2ccc(C(=O)NO)cc2)oc2ccccc12	> 120 min
Cc1ccc([S+](=O)([O-])NC2CCC(C)(C)CC2)cc1	4.82 min
Cc1ccc(C2=Nc3ccccc3N(CC(=O)Nc3ccccc3F)C(=O)C2)cc1C	6.23 min
COc1ccc(S(=O)(=O)Nc2cc(Cl)cc(Cl)c2OC)cc1N1CCNCC1	> 120 min
COc1cc(C)c(Sc2cnc(NC(=O)c3ccc(CNC(C)C(C)C)cc3)s2)cc1C(=O)N1CCN(C(C)=O)CC1 (stereo unspecified)	8.06 min
COc1ccc(Oc2c(Cl)cnn(-c3cc(C)cc(C)c3)c2=O)cc1	17.4 min
CCOC(=O)Nc1ccc(NCc2ccc(F)cc2)cc1N	> 120 min
CC1CC(C)(C)N(C(=O)CN2C(=O)c3ccccc3C2=O)c2ccccc21 (stereo unspecified)	8.38 min
Cn1cc(-c2ccc3nnc(Sc4ccc5nn(C)cc5c4)n3n2)cn1	> 120 min
CN[C@@H](C)[C@@H](O)c1ccccc1	> 120 min

SMILES	half-life
CCn1ccnc1C[C@@H]1COc2ccccc2O1	55.3 min
Cc1cc(-c2ncc(CC(=O)Nc3ccc(-c4cnccn4)cn3)cc2C)ccn1	36.4 min
CNC(=O)c1ccccc1Nc1nc(Nc2ccc(N3CCOCC3)cc2OC)ncc1Cl	34.9 min
CN1CCC2=C(C1)c1ccccc1Cc1ccccc12	95 min
CCN(CC)CCNc1ccc(CO)c2sc3ccccc3c(=O)c12	90.3 min
CC(C)c1ccc2oc3nc(N)c(C(=O)O)cc3c(=O)c2c1	> 120 min
Cc1ccc2nc(-c3cc(NC(=O)c4ccc5c(c4)OCCO5)ccc3Cl)oc2c1	63.3 min
NC(=O)c1cnc(N[C@@H]2CCCC[C@H]2N)nc1Nc1cccc(-n2nccn2)c1	90.7 min
COc1ccc(CCNc2ncnc3c2c(-c2ccccc2)cn3-c2cccc(Cl)c2)cc1OC	3.59 min
COc1cc2ncnc(Nc3cc(Br)c(O)c(Br)c3)c2cc1OC	> 120 min
CC1(C)CCC(CN2CCN(c3ccc(C(=O)NS(=O)(=O)c4ccc(NCC5CCOCC5)c([N+](=O)[O-])c4)c(Oc4cnc5[nH]ccc5c4)c3)CC2)=C(c2ccc(Cl)cc2)C1	32.8 min
COc1ccc2c(c1)CC[C@@H](CN(C)CC(=O)O)[C@H]2c1ccccc1	> 120 min
CCc1ccc(NC(=O)N2CCN(c3nnc(C)c4c(C)n(-c5ccc(Cl)cc5)nc34)CC2)cc1	25.5 min
CNC(=O)c1cc(Oc2ccc(NC(=O)Nc3ccc(Cl)c(C(F)(F)F)c3)cc2)ccn1	> 120 min
CCN(CC)CCCN(c1ccccc1)C1Cc2ccccc2C1	11.5 min
COc1cc(/C=N\NC(=O)c2ccc3c(c2)OCO3)ccc1OCc1ccccc1	23.5 min
Cc1nc2ccc(CN(C)c3ccc(C(=O)NC(CCC(=O)O)C(=O)O)s3)cc2c(=O)[nH]1 (stereo unspecified)	> 120 min
CC(=O)O[C@]1(C(C)=O)CC[C@H]2[C@@H]3C=C(Cl)C4=CC(=O)CC[C@]4(C)[C@H]3CC[C@@]21C	36.7 min
Cc1cncn1CCc1nc2c3ccccc3nc(SCC(=O)Nc3cccc(Cl)c3)n2n1	11.6 min
COc1ccc(Nc2cc(-c3cnc(N)nc3)nc(N3CCOCC3)n2)cn1	39.3 min
CCOCCCNC(=O)C(=O)Nc1c2c(nn1-c1ccc(OC)cc1)CSC2	42.3 min
COc1cc2c(Oc3ccc(-c4cnc(Nc5ccc(F)cc5)n(C)c4=O)cc3F)ccnc2cc1OCCCN1CCOCC1	30.6 min
Oc1cccc(C2NC(=S)Nc3cccc(F)c32)c1 (stereo unspecified)	> 120 min
COc1ccc(CCO[C@@H]2CCCC[C@H]2N2CC[C@@H](O)C2)cc1OC	> 120 min
CC(=O)N1CCC(Cc2ccc(C(=O)O)cc2)CC1	> 120 min
COc1cc(Nc2nc3ccccc3nc2NS(=O)(=O)c2cccc(NC(=O)c3ccc(C)c(OC)c3)c2)cc(OC)c1	14 min

SMILES	half-life
CC(C)(C)c1ccc(C(=O)Nc2cc(Cl)c(Br)cc2C(=O)O)cc1	6.17 min
CCOC(=O)C1=Cc2ccc(C(F)(F)C(F)(F)F)cc2N=C(N)C1	9.93 min
COc1ccc(NC(=O)Cn2cc(C(=O)c3cccs3)c3ccccc32)cc1	16.6 min
COc1ccc2c(c1)c(CC(=O)OCC(=O)O)c(C)n2C(=O)c1ccc(Cl)cc1	> 120 min
Nc1nc(O)c(C2=C3C(=Nc4ccccc43)C(=O)NCC2)[nH]1	> 120 min
Cc1cnc(Nc2cccc(CN3CCOCC3)c2)nc1Nc1cccc(S(=O)(=O)NC(C)(C)C)c1	19.5 min
O=C(CO)N1CCC(c2[nH]nc(-c3ccc(Cl)cc3)c2-c2ccncn2)CC1	> 120 min
N#Cc1ccnc(Nc2cc(C3CCN(C4COC4)CC3)cc(N3CCC(F)(F)C3)n2)c1	29.3 min
Cc1c(C)n(Cc2ccc(-c3ccccc3C(=O)O)cc2)c2ccc(C(=O)N[C@@H](C)c3ccc([N+](=O)[O-])cc3)cc12	> 120 min
C[C@@H]1C[C@H]2[C@@H]3CCC4=CC(=O)C=C[C@]4(C)[C@@]3(F)[C@@H](O)C[C@]2(C)[C@H]1C(=O)CO	57.3 min
Cc1ccc(Cl)c(OCC(O)CNC(C)(C)C)c1 (stereo unspecified)	1.53 min
CC(Cc1ccccc1)(NC(=O)CN)c1ccccc1 (stereo unspecified)	> 120 min
Cc1c(CN2CCN(C(=O)C(C)C)CC2)sc2c(N3CCOCC3)nc(-c3cnc(N)nc3)nc12	> 120 min
O=S(c1cc(Cl)cc(Cl)c1O)c1cc(Cl)cc(Cl)c1O	99.8 min
CCN1CCN(C(=O)C2Cn3cccc3C(=O)N2CC(C)C)CC1 (stereo unspecified)	> 120 min
COc1ccc2nc([C@H]3CCN(Cc4ccc(C(=O)O)cc4)C3)[nH]c2c1	> 120 min
COc1cc(-c2nn(C3CCC(N4CCN(C(C)=O)CC4)CC3)c3ncnc(N)c23)ccc1NC(=O)c1cc2ccccc2n1C (stereo unspecified)	> 120 min
Cc1ncc(CSSCc2cnc(C)c(O)c2CO)c(CO)c1O	> 120 min
CNCCCC12CCC(c3ccccc31)c1ccccc12	> 120 min
CN(C)CCC[C@@]1(c2ccc(F)cc2)OCc2cc(C#N)ccc21	> 120 min
Cc1cc(C(C)Nc2ccccc2C(=O)O)c2nc(N3CCOCC3)cc(=O)n2c1 (stereo unspecified)	> 120 min
COc1ccc([C@@H]2Sc3ccccc3NC(=O)[C@@H]2O)cc1	67.5 min
O=C(O)c1ccc[n+]([O-])c1	106 min
CCN1C(=O)c2ccccc2C1Nc1ccc(OCCN2CCCCC2)cc1 (stereo unspecified)	105 min
N#Cc1cccc(C(=O)Nc2ccc3ncnc(N4CCCCC4)c3c2)c1	12.4 min
C[C@H](N)C(=O)N1CCC(n2nccc2NC(=O)Nc2ccccc2Cl)CC1	> 120 min

SMILES	half-life
Cc1cccc(N2CCN(C(=O)CCC(=O)NNc3nc4ccccc4c4nc(C)nn34)CC2C)c1 (stereo unspecified)	6.71 min
O=C(NCC1CCOCC1)c1cnc(Nc2ccc(Cl)cc2Cl)nc1C(F)(F)F	38.1 min
C[C@]12CCC(=O)C=C1CC[C@@H]1[C@@H]2CC[C@@]2(C)[C@H]1CC[C@]2(O)C(=O)CO	62.1 min
COP(N)(=O)SC (stereo unspecified)	51.6 min
COC(=O)/C=C(\C)OP(=O)(OC)OC	19.9 min
CC(C)NC[C@H](O)c1ccc2ccccc2c1	18.8 min
COc1cc(C(=O)OC(COCCC(C)C)CN2CCOCC2)cc(OC)c1OC (stereo unspecified)	2.43 min
COc1ccc(Cn2c(SCC(=O)N3CCN(c4ccc(F)cc4)CC3)nc3ccccc32)cc1	2.2 min
CC(C)(C)NC[C@H](O)c1cc(O)cc(O)c1	> 120 min
O=c1oc2ccccc2c(O)c1Cc1c(O)c2ccccc2oc1=O	33.3 min
CCCCC(=O)OCC(=O)[C@H]1[C@H](C)C[C@H]2[C@@H]3C[C@H](F)C4=CC(=O)C=C[C@]4(C)[C@@]3(F)[C@@H](O)C[C@@]21C	5.18 min
COc1ccc(C(=O)Oc2ccc(C(c3c(C)[nH][nH]c3=O)c3c(C)[nH][nH]c3=O)cc2)cc1	1.55 min
CCC(=O)NS(=O)(=O)c1ccc(-c2c(-c3ccccc3)noc2C)cc1	48.5 min
O=C(O)c1ccc(-c2ccc(N3CCCCCC3)nc2)cc1	> 120 min
CC(C)COC[C@H](CN(Cc1ccccc1)c1ccccc1)N1CCCC1	21.1 min
Cc1nn2c(c1-c1ccccc1Oc1ccccc1)N(Cc1cccc(C#N)c1)CCC2	0.77 min
CCOC(=O)c1sc(NC(=O)c2c(-c3ccccc3)c(-c3ccccc3)nn(C)c2=O)nc1C	> 120 min
O=C(Nc1ncc([N+](=O)[O-])s1)c1cccs1	29 min
COc1cc2c(NC3CCN(CC4CCCCC4)CC3)nc(N3CCCN(C(C)C)CC3)nc2cc1OCCCN1CCCCC1	30 min
O=C(N[C@H]1CN2CCC1CC2)c1cc2cccc(Cl)c2s1	> 120 min
CC(C)c1ccc(NC(=O)C(c2ccccc2)N(C)C(=O)Cc2c[nH]c3ccccc23)cc1 (stereo unspecified)	7.38 min
CC1(C#N)CCN(c2c(C(=O)N3CCN(C(=O)N4CCCC4)CC3)cnc3c(F)cc(F)cc23)CC1	27.2 min
Cc1nc2c3ccccc3nc(NNC(=O)CCC(=O)N3CCN(c4ccccc4)CC3)n2n1	107 min
